{"source": "paper PMC11486972", "about": "(Hepatology (Baltimore, Md.), 2024)", "target": "cathepsin S (CTSS) (Homo sapiens, UniProt P25774)", "sequence (P25774 115-331)": "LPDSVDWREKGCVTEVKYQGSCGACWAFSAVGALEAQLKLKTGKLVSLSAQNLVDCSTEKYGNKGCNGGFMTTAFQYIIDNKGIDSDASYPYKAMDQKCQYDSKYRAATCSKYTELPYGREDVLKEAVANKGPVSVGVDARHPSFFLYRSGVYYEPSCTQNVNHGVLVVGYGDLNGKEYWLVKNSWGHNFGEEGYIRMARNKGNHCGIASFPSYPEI", "test": "cell-free enzyme assay with recombinant CTSS", "format": "biochemical"}
{"smiles": "CN1CCN(C(=O)N[C@@H](Cc2ccccc2)C(=O)N[C@H](/C=C/S(=O)(=O)c2ccccc2)CCc2ccccc2)CC1", "note": "[K11777]", "values": [{"measurement": "EC50", "result": 0.9, "unit": "µM"}]}
